{
  "source": "patent US9617538B2",
  "about": "“Heptamer-type small guide nucleic acids inducing apoptosis of human leukemia cells” (NIIGATA UNIVERSITY OF PHARMACY AND APPLIED LIFE SCIENCE, priority 2011, dated 2017)",
  "key": {"[1]": {"system": "human leukemia cells HL60", "test": "Mouse xenograft experiment", "format": "in vivo, immunodeficient nude mice", "conditions": "HL60 subcutaneous xenograft; sgRNA 100 μM, 10 μl at transplantation site once daily for 5 days; difference of median survival time vs non-administered or ineffective-sgRNA group", "procedure": "2×10^6 human leukemia cells HL60 were subcutaneously transplanted into immunodeficient nude mice with an extracellular matrix. Each heptamer-type sgRNA (100 μM) was continuously administered to the transplantation site in a dose of 10 μl, once each day for 5 days, and the tumor volume was measured every day. The mice were euthanized upon the tumor volume reaching 1,500 mm^3. The experiment was conducted with groups of 6 to 8 mice, and the difference between the median value of the survival time of each sgRNA administered group and the median value of the survival time of the non-administered group (or a group administered with the ineffective heptamer-type sgRNA) was calculated as the extended lifetime due to the heptamer-type sgRNA. • (2) Results • (2-1) MTT Assay"}, "[2]": {"system": "human myeloma cell line RPMI-8226", "test": "MTT assay, RPMI-8226", "format": "cell-based", "conditions": "sgRNA 1 μM, no delivery reagent, 72 hours (3 days), vs sgRNA non-administered group", "procedure": "(§1) Each sgRNA (final concentration 1 μM) was added to a 96-well culture plate containing human cancer cell lines (1,000 cells/100 μl medium), without using a reagent for the delivery of the sgRNA into the cells. The cells were then cultured in a 37° C. CO2 incubator. […] Leukemia cells HL60, and myeloma cells KMM1 and RPMI-8226 were used as the human cancer cell lines, and the viable cell count was compared with that of an sgRNA non-administered group. As controls, each sgRNA was introduced to normal cells HEK293, and the same MTT assay was performed. • (1-3) Flow Cytometry Experiment"}, "[3]": {"system": "human myeloma cell line KMM1", "test": "MTT assay, KMM1", "format": "cell-based", "conditions": "sgRNA 1 μM, no delivery reagent, 72 hours (3 days), vs sgRNA non-administered group", "procedure": "as §1"}, "[4]": {"system": "human leukemia cell line HL60", "test": "MTT assay, HL60", "format": "cell-based", "conditions": "sgRNA 1 μM, no delivery reagent, 72 hours (3 days), vs sgRNA non-administered group", "procedure": "as §1"}},
  "note": "{P} = phosphate",
  "data": [
    {"substance": "Hep2(bcl-2): heptamer-type sgRNA 5′-GGGGGCG-3′, phosphorylated at the 5′ and 3′ ends, 2′-O-methylated (all 2'-O-methyl, 5' {P}, 3' {P}, backbone not given here)", "values": [
      {"measurement": "Mouse xenograft experiment (Extended lifetime)", "setting": "[1]", "result": "(+19 days)"},
      {"measurement": "MTT assay (Percentage reduction of viable cells) RPMI", "setting": "[2]", "result": 69, "unit": "%"},
      {"measurement": "MTT assay (Percentage reduction of viable cells) KMM1", "setting": "[3]", "result": 24, "unit": "%"},
      {"measurement": "MTT assay (Percentage reduction of viable cells) HL60", "setting": "[4]", "result": 99, "unit": "%"}
    ]},
    {"substance": "Hep2(PKCb): heptamer-type sgRNA 5′-CCGGGGC-3′, phosphorylated at the 5′ and 3′ ends, 2′-O-methylated (all 2'-O-methyl, 5' {P}, 3' {P}, backbone not given here)", "values": [
      {"measurement": "MTT assay (Percentage reduction of viable cells) RPMI", "setting": "[2]", "result": 75, "unit": "%"},
      {"measurement": "MTT assay (Percentage reduction of viable cells) KMM1", "setting": "[3]", "result": 48, "unit": "%"},
      {"measurement": "MTT assay (Percentage reduction of viable cells) HL60", "setting": "[4]", "result": 93, "unit": "%"}
    ]},
    {"substance": "Hep(YW): heptamer-type sgRNA 5′-GCAUGCG-3′, phosphorylated at the 5′ and 3′ ends, 2′-O-methylated (all 2'-O-methyl, 5' {P}, 3' {P}, backbone not given here)", "values": [
      {"measurement": "MTT assay (Percentage reduction of viable cells) RPMI", "setting": "[2]", "result": 0, "unit": "%"},
      {"measurement": "MTT assay (Percentage reduction of viable cells) KMM1", "setting": "[3]", "result": 59, "unit": "%"},
      {"measurement": "MTT assay (Percentage reduction of viable cells) HL60", "setting": "[4]", "result": 96, "unit": "%"}
    ]},
    {"substance": "Hep7(WT1): heptamer-type sgRNA 5′-CUGCUUU-3′, phosphorylated at the 5′ and 3′ ends, 2′-O-methylated (5' {P}, 3' {P}, sugars by position and backbone not given here; 2'-O-methylated)", "values": [
      {"measurement": "MTT assay (Percentage reduction of viable cells) RPMI", "setting": "[2]", "result": 46, "unit": "%"},
      {"measurement": "MTT assay (Percentage reduction of viable cells) KMM1", "setting": "[3]", "result": 24, "unit": "%"},
      {"measurement": "MTT assay (Percentage reduction of viable cells) HL60", "setting": "[4]", "result": 98, "unit": "%"}
    ]},
    {"substance": "Hep1(HAGE): heptamer-type sgRNA 5′-UCUUUCC-3′, phosphorylated at the 5′ and 3′ ends, 2′-O-methylated (all 2'-O-methyl, 5' {P}, 3' {P}, backbone not given here)", "values": [
      {"measurement": "MTT assay (Percentage reduction of viable cells) RPMI", "setting": "[2]", "result": 5, "unit": "%"},
      {"measurement": "MTT assay (Percentage reduction of viable cells) KMM1", "setting": "[3]", "result": 61, "unit": "%"},
      {"measurement": "MTT assay (Percentage reduction of viable cells) HL60", "setting": "[4]", "result": 91, "unit": "%"}
    ]},
    {"substance": "Hep9(FGFR3): heptamer-type sgRNA 5′-CACCAGC-3′, phosphorylated at the 5′ and 3′ ends, 2′-O-methylated (all 2'-O-methyl, 5' {P}, 3' {P}, backbone not given here)", "values": [
      {"measurement": "Mouse xenograft experiment (Extended lifetime)", "setting": "[1]", "result": "(+6 days)"},
      {"measurement": "MTT assay (Percentage reduction of viable cells) RPMI", "setting": "[2]", "result": 76, "unit": "%"},
      {"measurement": "MTT assay (Percentage reduction of viable cells) KMM1", "setting": "[3]", "result": 79, "unit": "%"},
      {"measurement": "MTT assay (Percentage reduction of viable cells) HL60", "setting": "[4]", "result": 95, "unit": "%"}
    ]},
    {"substance": "Hep5(IRF4): heptamer-type sgRNA 5′-GGGUCCU-3′, phosphorylated at the 5′ and 3′ ends, 2′-O-methylated (5' {P}, 3' {P}, sugars by position and backbone not given here; 2'-O-methylated)", "values": [
      {"measurement": "MTT assay (Percentage reduction of viable cells) RPMI", "setting": "[2]", "result": 6, "unit": "%"},
      {"measurement": "MTT assay (Percentage reduction of viable cells) KMM1", "setting": "[3]", "result": 69, "unit": "%"},
      {"measurement": "MTT assay (Percentage reduction of viable cells) HL60", "setting": "[4]", "result": 86, "unit": "%"}
    ]},
    {"substance": "Hep3(MYC): heptamer-type sgRNA 5′-GCAGCUC-3′, phosphorylated at the 5′ and 3′ ends, 2′-O-methylated (5' {P}, 3' {P}, sugars by position and backbone not given here; 2'-O-methylated)", "values": [
      {"measurement": "MTT assay (Percentage reduction of viable cells) RPMI", "setting": "[2]", "result": 2, "unit": "%"},
      {"measurement": "MTT assay (Percentage reduction of viable cells) KMM1", "setting": "[3]", "result": 67, "unit": "%"},
      {"measurement": "MTT assay (Percentage reduction of viable cells) HL60", "setting": "[4]", "result": 90, "unit": "%"}
    ]},
    {"substance": "Hep5(MYC): heptamer-type sgRNA 5′-GCUGCUG-3′, phosphorylated at the 5′ and 3′ ends, 2′-O-methylated (5' {P}, 3' {P}, sugars by position and backbone not given here; 2'-O-methylated)", "values": [
      {"measurement": "MTT assay (Percentage reduction of viable cells) RPMI", "setting": "[2]", "result": 0, "unit": "%"},
      {"measurement": "MTT assay (Percentage reduction of viable cells) KMM1", "setting": "[3]", "result": 72, "unit": "%"},
      {"measurement": "MTT assay (Percentage reduction of viable cells) HL60", "setting": "[4]", "result": 86, "unit": "%"}
    ]},
    {"substance": "Hep2(HAGE): heptamer-type sgRNA 5′-UAUAUUU-3′, phosphorylated at the 5′ and 3′ ends, 2′-O-methylated (all 2'-O-methyl, 5' {P}, 3' {P}, backbone not given here)", "values": [
      {"measurement": "MTT assay (Percentage reduction of viable cells) RPMI", "setting": "[2]", "result": 5, "unit": "%"},
      {"measurement": "MTT assay (Percentage reduction of viable cells) KMM1", "setting": "[3]", "result": 72, "unit": "%"},
      {"measurement": "MTT assay (Percentage reduction of viable cells) HL60", "setting": "[4]", "result": 94, "unit": "%"}
    ]},
    {"substance": "Hep1(bcl-2): heptamer-type sgRNA 5′-GGGCCAG-3′, phosphorylated at the 5′ and 3′ ends, 2′-O-methylated (all 2'-O-methyl, 5' {P}, 3' {P}, backbone not given here)", "values": [
      {"measurement": "Mouse xenograft experiment (Extended lifetime)", "setting": "[1]", "result": "(+22 days)"},
      {"measurement": "MTT assay (Percentage reduction of viable cells) RPMI", "setting": "[2]", "result": 18, "unit": "%"},
      {"measurement": "MTT assay (Percentage reduction of viable cells) KMM1", "setting": "[3]", "result": 0, "unit": "%"},
      {"measurement": "MTT assay (Percentage reduction of viable cells) HL60", "setting": "[4]", "result": 88, "unit": "%"}
    ]},
    {"substance": "Hep8(FGFR3): heptamer-type sgRNA 5′-AUCUUCA-3′, phosphorylated at the 5′ and 3′ ends, 2′-O-methylated (all 2'-O-methyl, 5' {P}, 3' {P}, backbone not given here)", "values": [
      {"measurement": "Mouse xenograft experiment (Extended lifetime)", "setting": "[1]", "result": "(+10 days)"},
      {"measurement": "MTT assay (Percentage reduction of viable cells) RPMI", "setting": "[2]", "result": 76, "unit": "%"},
      {"measurement": "MTT assay (Percentage reduction of viable cells) KMM1", "setting": "[3]", "result": 78, "unit": "%"},
      {"measurement": "MTT assay (Percentage reduction of viable cells) HL60", "setting": "[4]", "result": 87, "unit": "%"}
    ]},
    {"substance": "Hep1(MYC): heptamer-type sgRNA 5′-CAGCUCG-3′, phosphorylated at the 5′ and 3′ ends, 2′-O-methylated (all 2'-O-methyl, 5' {P}, 3' {P}, backbone not given here)", "values": [
      {"measurement": "MTT assay (Percentage reduction of viable cells) RPMI", "setting": "[2]", "result": 16, "unit": "%"},
      {"measurement": "MTT assay (Percentage reduction of viable cells) KMM1", "setting": "[3]", "result": 56, "unit": "%"},
      {"measurement": "MTT assay (Percentage reduction of viable cells) HL60", "setting": "[4]", "result": 90, "unit": "%"}
    ]},
    {"substance": "Hep6(PRAME): heptamer-type sgRNA 5′-UCCAGGU-3′, phosphorylated at the 5′ and 3′ ends, 2′-O-methylated (all 2'-O-methyl, 5' {P}, 3' {P}, backbone not given here)", "values": [
      {"measurement": "MTT assay (Percentage reduction of viable cells) RPMI", "setting": "[2]", "result": 10, "unit": "%"},
      {"measurement": "MTT assay (Percentage reduction of viable cells) KMM1", "setting": "[3]", "result": 15, "unit": "%"},
      {"measurement": "MTT assay (Percentage reduction of viable cells) HL60", "setting": "[4]", "result": 95, "unit": "%"}
    ]},
    {"substance": "Hep5(PRAME): heptamer-type sgRNA 5′-GCUCUGC-3′, phosphorylated at the 5′ and 3′ ends, 2′-O-methylated (5' {P}, 3' {P}, sugars by position and backbone not given here; 2'-O-methylated)", "values": [
      {"measurement": "MTT assay (Percentage reduction of viable cells) RPMI", "setting": "[2]", "result": 54, "unit": "%"},
      {"measurement": "MTT assay (Percentage reduction of viable cells) KMM1", "setting": "[3]", "result": 17, "unit": "%"},
      {"measurement": "MTT assay (Percentage reduction of viable cells) HL60", "setting": "[4]", "result": 94, "unit": "%"}
    ]}
  ]
}
